Test results published in US10239878B2, “Macrocyclic ligands with pendant chelating moieties and complexes thereof” (LUMIPHORE, INC., priority 2016, dated 2019).

Legend:
Type in all cases: physicochemical
[1] = Stability of 43⋅Eu luminescence in the presence of ca. 25 mM competitors
Description: In order for a luminescent metal complex to be useful in a practical sense, it must be stable in the presence of common competitive metal cations and chelating ligands. We measured the stability of 43 ⋅Eu (ca. 7 μM) dissolved in TBS buffer, with various competitors present at ca. 25 mM concentration. Specifically, manganese dichloride tetrahydrate (14.8 mg, 74.8 μmol) was dissolved into TBS buffer (100 μL), and added to an aliquot of 43⋅Eu (3 mL), making the final concentration of Mn(II) 24.1 mM. Magnesium chloride hexahydrate (33.6 mg, 165 μmol) was dissolved into TBS buffer (200 μL), and 100 μL was added to an aliquot of 43⋅Eu (3 mL), making the final concentration of Mg(II) 26.7 mM. Calcium chloride hexahydrate (55.8 mg, 255 μmol) was dissolved into TBS buffer (300 μL), and 100 μL was added to an aliquot of 43 ⋅Eu (3 mL), making the final concentration of Ca(II) 27.4 mM. For DTPA, first KOH (95.9 mg, 1.71 mmol) was dissolved into 1 mL of water, and 389 μL of this basic solution (5 equivalents) was used to dissolve DTPA (52.3 mg, 133 μmol). Then, 219 μL of this DTPA solution was added to an aliquot of 43⋅Eu (3 mL), making the final concentration of DTPA 23.4 mM. EDTA (0.5 M, pH=8, 150 μL) was added to an aliquot of 43 ⋅Eu (3 mL), making the final concentration of EDTA 23.8 mM. For phosphate competition, the methanolic stock of 43⋅Eu was diluted to ca. 7 μM in 25 mM phosphate buffer (pH=8).

[2] = Europium titration experiments for determining extinction coefficients
Description: In order to determine accurate extinction coefficients for 16 and 16⋅Eu, titration experiments using europium chloride as the titrant were performed. Europium chloride hexahydrate (13.22 mg, 0.03608 mmol) was dissolved into 5 mM citrate buffer (pH=4) using a 100 mL volumetric flask to give a 0.3608 mM europium chloride solution, which was then titrated into a 0.5 mL solution of 16 in TBS buffer (Tris-buffered saline, 50 mM Tris, 150 mM NaCl, pH=7.6) using 5 μL aliquots. The UV-vis spectra were adjusted for the increase in solvent volume due to each injection. The results of the UV-vis titration are plotted in FIG. 3.
The volume of europium chloride corresponds to 16.70 nmol of europium, meaning the starting concentration of ligand 16 was 33.40 μM. […] These absorbance and concentration values yield extinction coefficients of 13,600 M^−1 cm^−1 and 14,300 M^−1 cm^−1 for the ligand 16 and the complex 16⋅Eu respectively.
In order to determine accurate extinction coefficients for 43 and 43⋅Eu, titration experiments using europium chloride as the titrant were performed. Europium chloride hexahydrate (47.58 mg, 0.1299 mmol) was dissolved into 50 mM citrate buffer (pH=4) using a 10 mL volumetric flask to give a 12.99 mM europium chloride solution, which was then transferred to a 100 mL volumetric flask and diluted 1:10 with water. The resulting 1.299 mM europium chloride solution (in 5 mM citrate buffer) was then titrated into a 1 mL solution of 43 in TBS buffer using 5 μL aliquots. The UV-vis spectra were adjusted for the increase in solvent volume due to each injection. The results of the UV-vis titration are plotted in FIG. 4.
The volume of europium chloride corresponds to 47.46 nmol of europium, meaning the starting concentration of ligand 43 was 47.46 μM. […] These absorbance and concentration values yield extinction coefficients of 13,000 M^−1 cm^−1 and 12,800 M^−1 cm^−1 for the ligand and complex respectively.
Titration of ligand 43 was also performed by luminescence (FIG. 5), monitoring the europium signal at 612 nm upon photoexcitation of the solution at 340 nm. The ligand solution used for the UV-vis titration of 43 mentioned above was first diluted 1:10 in TBS buffer. Similarly, the 1.299 mM stock europium solution was separately diluted 1:10 with water. […] The 32.99 μL equivalence point gives extinction coefficients of 14,400 M^−1 cm^−1 at 383 nm and 14,200 M^−1 cm^−1 at 357 nm for 43 and 43⋅Eu respectively. Averaging the values from both UV-vis and luminescence titration experiments of 43 yields extinction coefficients of 13,700 M^−1 cm^−1 at 383 nm and 13,500 M^−1 cm^−1 at 357 nm for 43 and 43⋅Eu respectively.

[3] = 250 mM DTPA competition experiments (kinetic stability of Eu complexes); details: 33⋅Eu versus 16⋅Eu, 43⋅Eu versus 40⋅Eu
From the text: From these experiments, it is clear that 43⋅Eu is remarkably stable to a wide range of competitive metal ions and chelators. The competitor concentrations mentioned above are a good way to assess the kinetic stability of the complex in various assay conditions. DTPA is an exceptionally good ligand for lanthanide ions, and thus it is not typically used in practical assays. However, DTPA competition offers an excellent way to benchmark the kinetic stability of the complexes reported here. […] In order to compare the kinetic stability of the complexes reported here, a 750 mM stock solution (25 mL) of DTPA was prepared by dissolving DTPA (7.375 g, 18.75 mmol) into water (20 mL) containing potassium hydroxide (5.26 g, 93.75 mmol). The pH of the DTPA solution was adjusted to pH=7.6 by addition of concentrated hydrochloric acid, and then the solution was diluted to a final volume of 25 mL to give a 750 mM DTPA stock solution at pH=7.6. HPLC purified europium complexes of 16, 29, 33, 40, and 43 were separately diluted to 11 μM in TBS buffer, pH=7.6. For each DTPA competition experiment, 1 mL of the 750 mM DTPA solution was added to 2 mL of the 11 μM europium complex solution. The luminescence at 612 nm (365 nm excitation) was monitored for these five separate solutions containing 250 mM DTPA and 7.1 μM of each europium complex as a function of time.

NCCOCCNC(=O)C1CCCN(C(=O)c2cccc(=O)n2[O-])CCCNC(=O)c2ccc(n([O-])c2=O)C(=O)NC2COCC2NC(=O)c2ccc(c(=O)n2[O-])C(=O)NCCCN1C(=O)c1cccc(=O)n1[O-].[Eu+3] (mixture of isomers) [43⋅Eu]
change in sample brightness ([1]; 25 mM phosphate buffer pH=8, 24 hours): no detectable change
change in sample brightness ([1]; Ca(II) 27.4 mM, TBS buffer, 24 hours): no detectable change
brightness remaining (of the original brightness) ([1]; DTPA 23.4 mM, TBS buffer, after 24 hours): 83%
brightness remaining ([1]; EDTA 23.8 mM, TBS buffer, 24 hours): 96%
change in sample brightness ([1]; Mg(II) 26.7 mM, TBS buffer, 24 hours): no detectable change
brightness remaining ([1]; Mn(II) 24.1 mM, TBS buffer, 24 hours): 89%
extinction coefficient ([2]; UV-vis titration with europium chloride, TBS buffer pH 7.6, at lambda max): 12,800 M^−1 cm^−1
lambda max ([2]; UV-vis titration, TBS buffer): 357 nm
extinction coefficient, average of UV-vis and luminescence titration ([2]; at 383 nm (ligand) / 357 nm (complex)): 13,500 M^−1 cm^−1
ε at λmax ([2]; by europium titration, TBS buffer pH 7.6): 13,500 M^−1cm^−1
extinction coefficient ([2]; luminescence titration (612 nm signal, 340 nm photoexcitation), at 383 nm (ligand) / 357 nm (complex)): 14,200 M^−1 cm^−1
reduction in kinetic stability upon introduction of the spermine-based sidearm [3]: ~2 fold
